Assays:
[1] = biological target: T1, PAF receptor (human platelet plasma membranes) (Homo sapiens, UniProt P25105); assay: Inhibition of [^3 H]-PAF receptor binding to human platelet plasma membranes; conditions: [^3 H]-PAF 0.5 nM, 0° C., 1 hour incubation, pH 7.0
T1 construct: Platelet concentrates were obtained from a hospital blood bank; from tissue; host or cells: human platelets (platelet concentrates from a hospital blood bank), lysed membranes
Method: The inhibition of [^3 H]-PAF binding to human platelet plasma membranes by compounds of general formula I was determined by isotopic labelling and filtration techniques. Platelet concentrates were obtained from a hospital blood bank. These platelet concentrates (500-2500 ml.) were centrifuged at 800 rpm for 10 minutes in a SORVALL RC3B centrifuge to remove the red blood cells present. (The word SORVALL is a trade mark.) The supernalant was subsequently centrifuged at 3,000 rpm in a SORVALL RC3B centrifuge to pellet the platelets present. The platelet rich pellets were resuspended in a minimum volume of buffer (150 mM NaCl, 10 mM Tris, 2 mM EDTA, pH 7.5) and layered onto Ficoll-Paque gradients, 9 ml platelet concentrate to 2 ml Ficoll, and centrifuged at 1,900 rpm for 15 minutes in a SORVALL RT6000 centrifuge. This step removes the residual red blood cells and other nonspecific material such as lymphocytes from the preparation. The platelets which form a band between the plasma and the Ficoll were removed, resuspended in the above buffer and centrifuged at 3,000 rpm for 10 minutes in a SORVALL RT6000 centrifuge. The pelleted platelets were resuspended in buffer (10 mM Tris, 5mM MgCl2, 2 mM EDTA, pH 7.0), snap freezed in liquid N2 and allowed to thaw slowly at room temperature in order to lyse the platelets. The latter step was repeated at least 3 times to ensure proper lysis. […]

[2] = system: PAF-induced hypotension in the rat; assay: Inhibition of PAF-induced hypotension in the rat; type: in vivo, rat (male Sprague-Dawley); conditions: iv, anaesthetised rats, PAF 100 ng/kg/min i.v. infusion, test compound i.v. bolus, straight line interpolation, read-out: ED50, dose to cause a 50% reversal of the hypotensive PAF response
Method: Male Sprague-Dawley rats (300-400 g) were anaesthetised with a mixture of sodium pentobarbitone, 22.5 mg/kg and thiopental 62.5 mg/kg. Through a midline incision in the neck, the trachea was cannulated and the animals breathed spontaneously. A carotid artery was cannulated for the measurement of blood pressure and this signal was used to trigger a rate meter to measure heart rate. Both jugular veins were cannulated: one for the infusion of PAF and the other for the bolus administration of test compounds.
PAF, 100 ng/kg/min was infused i.v. until a sustained fall in mean blood pressure of 50 mmHg was achieved. […] The peak of this reversal was measured and the dose to cause a 50% reversal of the hypotensive PAF response (ED50) calculated by straight line interpolation and the results are presented in Table 2.

T1 sequence (P25105 whole entry): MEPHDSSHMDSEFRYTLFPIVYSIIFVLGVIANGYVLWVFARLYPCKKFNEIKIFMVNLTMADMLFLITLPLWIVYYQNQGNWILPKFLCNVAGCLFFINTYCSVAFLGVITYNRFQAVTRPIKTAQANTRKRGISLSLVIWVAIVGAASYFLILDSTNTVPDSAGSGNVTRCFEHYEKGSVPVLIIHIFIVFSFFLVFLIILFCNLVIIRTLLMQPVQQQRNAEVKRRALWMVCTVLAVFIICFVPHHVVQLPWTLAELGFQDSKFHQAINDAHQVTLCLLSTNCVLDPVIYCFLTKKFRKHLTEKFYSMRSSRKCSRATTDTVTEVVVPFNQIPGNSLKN

| IC50 [1] [nM] | Compound | ED50 [2] [µg/kg] |
| --- | --- | --- |
| 80 | CCCCCCCC1CCCC(OCCCn2c(C)nc3cnccc32)O1 (stereo not drawn) [Example 1, O-(3-(2-Methylimidazo[4,5-c]pyrid-1-yl)propyl)-5-n-heptyl-delta-valerolactol ether] | – |
| 120 | CCCCCCCC1CCC(OCCCn2c(C)nc3cnccc32)O1 (stereo not drawn) [Example 2, O-(3-(2-Methylimidazo[4,5-c]pyrid-1-yl)propyl)-5-n-heptyl-gamma-butyrolactol ether] | 2.1 |

Reference: US5637595A, “Cyclic ether acetal PAF antagonists” (British Bio-technology Limited, priority 1991, dated 1997)
